Reference: patent publication US20250009742A1 (priority 2021, published 2025)

What was measured:
[1] = Cell viability assay (EZ-Cytox), cytotoxicity; type: cell-based; settings: human, HepAD38 cells; for viability at 65 h, 100 µM: read-out: Cytotoxicity % Livability (@100 μM)
Method: HepAD38 cells were cultured for 2 days in Dulbecco's Modified Eagle's medium (Welgene, LM001-05) supplemented with 10% FBS without tetracycline. […] After 65 hours of treatment, viability was measured using EZ-Cytox cell viability assay kit (Daeil Lab Service) according to the manufacturer's instructions. The absorbance was measured at 450 nm using a spectrophotometer (Spark, Tecan).

[2] = test system: intracellular HBV DNA; experiment: Real-time PCR for intracellular HBV DNA in HepAD38 cells; type: cell-based; settings: Hepatitis B virus, HePAD38, 65 h, 65 hours treatment

COc1ncc(N(Cc2n[nH]c(C(F)(F)F)c2CCO)C(=O)Nc2ccc(F)c(C(F)F)c2)cn1 [Example 193, 3-(3-(difluoromethyl)-4-fluorophenyl)-1-((4-(2-hydroxyethyl)-5-(trifluoromethyl)-1H-pyrazol-3-yl)methyl)-1-(2-methoxypyrimidin-5-yl)urea]
CC50 at 65 h [1]: > 100000 nM
IC50 [2]: 180 nM

COc1ncc(N(Cc2n[nH]c(C(F)(F)F)c2Br)C(=O)Nc2ccc(F)c(C(F)F)c2)cn1 [Example 194, 1-((4-bromo-5-(trifluoromethyl)-1H-pyrazol-3-yl)methyl)-3-(3-(difluoromethyl)-4-fluorophenyl)-1-(2-methoxypyrimidin-5-yl)urea]
CC50 at 65 h [1]: > 100000 nM
IC50 [2]: 21 nM

COc1ccc(N(Cc2cc(C(F)F)[nH]n2)C(=O)Nc2ccc(F)c(C(F)F)c2)nn1 [Example 195, 1-((5-(difluoromethyl)-1H-pyrazol-3-yl)methyl)-3-(3-(difluoromethyl)-4-fluorophenyl)-1-(6-methoxypyridazin-3-yl)urea]
CC50 at 65 h [1]: > 100000 nM
viability at 65 h, 100 µM [1]: 100%
IC50 [2]: > 1100 nM

COc1ncc(N(Cc2cc(C(F)F)[nH]n2)C(=O)Nc2ccc(F)c(C(F)F)n2)cn1 [Example 196, 1-((5-(difluoromethyl)-1H-pyrazol-3-yl)methyl)-3-(6-(difluoromethyl)-5-fluoropyridin-2-yl)-1-(2-methoxypyrimidin-5-yl)urea]
CC50 at 65 h [1]: 76400 nM
viability at 65 h, 100 µM [1]: 29.2%
IC50 [2]: 160 nM

COc1ncc(N(Cc2n[nH]c(C(F)F)c2Br)C(=O)Nc2ccc(F)c(C(F)F)c2)cn1 [Example 197, 1-((4-bromo-5-(difluoromethyl)-1H-pyrazol-3-yl)methyl)-3-(3-(difluoromethyl)-4-fluorophenyl)-1-(2-methoxypyrimidin-5-yl)urea]
CC50 at 65 h [1]: 79100 nM
viability at 65 h, 100 µM [1]: 11.5%
IC50 [2]: 19 nM

COc1ncc(N(Cc2n[nH]c(C(F)F)c2C(C)(C)O)C(=O)Nc2ccc(F)c(C(F)F)c2)cn1 [Example 198, 1-((5-(difluoromethyl)-4-(2-hydroxypropan-2-yl)-1H-pyrazol-3-yl)methyl)-3-(3-(difluoromethyl)-4-fluorophenyl)-1-(2-methoxypyrimidin-5-yl)urea]
CC50 at 65 h [1]: > 100000 nM
viability at 65 h, 100 µM [1]: 102%
IC50 [2]: > 1100 nM

COc1ncc(N(Cc2n[nH]c(C(F)(F)F)c2CC(C)O)C(=O)Nc2ccc(F)c(C(F)F)c2)cn1 (stereo not shown) [Example 199, 3-(3-(difluoromethyl)-4-fluorophenyl)-1-((4-(2-hydroxypropyl)-5-(trifluoromethyl)-1H-pyrazol-3-yl)methyl)-1-(2-methoxypyrimidin-5-yl)urea]
CC50 at 65 h [1]: > 100000 nM
viability at 65 h, 100 µM [1]: 95.7%
IC50 [2]: 750 nM

COc1cc(N(Cc2cc(C(F)F)[nH]n2)C(=O)Nc2ccc(F)c(C(F)F)c2)cnn1 [Example 201, 1-((5-(difluoromethyl)-1H-pyrazol-3-yl)methyl)-3-(3-(difluoromethyl)-4-fluorophenyl)-1-(6-methoxypyridazin-4-yl)urea]
CC50 at 65 h [1]: > 100000 nM
viability at 65 h, 100 µM [1]: 107%
IC50 [2]: 28 nM

COc1ncc(N(Cc2cc(C(F)(F)F)[nH]n2)C(=O)Nc2ccc(F)c(C(F)F)n2)cn1 [Example 202, 3-(6-(difluoromethyl)-5-fluoropyridin-2-yl)-1-(2-methoxypyrimidin-5-yl)-1-((5-(trifluoromethyl)-1H-pyrazol-3-yl)methyl)urea]
CC50 at 65 h [1]: > 100000 nM
viability at 65 h, 100 µM [1]: 82.3%
IC50 [2]: 46 nM

COc1ncc(N(Cc2cc(C(F)(F)F)[nH]n2)C(=O)Nc2ccc(C(F)F)c(F)c2)cn1 [Example 206, 3-(4-(difluoromethyl)-3-fluorophenyl)-1-(2-methoxypyrimidin-5-yl)-1-((5-(trifluoromethyl)-1H-pyrazol-3-yl)methyl)urea]
CC50 at 65 h [1]: > 100000 nM
viability at 65 h, 100 µM [1]: 89.6%
IC50 [2]: 180 nM

COc1ncc(N(Cc2n[nH]c(C(F)(F)F)c2C(C)(C)O)C(=O)Nc2ccc(F)c(C(F)F)c2)cn1 [Example 207, 3-(3-(difluoromethyl)-4-fluorophenyl)-1-((4-(2-hydroxypropan-2-yl)-5-(trifluoromethyl)-1H-pyrazol-3-yl)methyl)-1-(2-methoxypyrimidin-5-yl)urea]
CC50 at 65 h [1]: > 100000 nM
viability at 65 h, 100 µM [1]: 87.7%
IC50 [2]: 740 nM

COc1ncc(N(Cc2cc(C#N)[nH]n2)C(=O)Nc2ccc(F)c(C(F)F)n2)cn1 [Example 212, 1-((5-cyano-1H-pyrazol-3-yl)methyl)-3-(6-(difluoromethyl)-5-fluoropyridin-2-yl)-1-(2-methoxypyrimidin-5-yl)urea]
CC50 at 65 h [1]: > 100000 nM
viability at 65 h, 100 µM [1]: 99.4%
IC50 [2]: 210 nM

COC12CC(N(Cc3cc(C(F)(F)F)[nH]n3)C(=O)Nc3ccc(F)c(C(F)F)c3)(C1)C2 [Example 213, 3-(3-(difluoromethyl)-4-fluorophenyl)-1-(3-methoxybicyclo[1.1.1]pentan-1-yl)-1-((5-(trifluoromethyl)-1H-pyrazol-3-yl)methyl)urea]
CC50 at 65 h [1]: > 100000 nM
viability at 65 h, 100 µM [1]: 63.1%
IC50 [2]: 16 nM

COC12CC(N(Cc3cc(C(F)(F)F)[nH]n3)C(=O)Nc3ccc(F)c(C(F)F)n3)(C1)C2 [Example 214, 3-(6-(difluoromethyl)-5-fluoropyridin-2-yl)-1-(3-methoxybicyclo[1.1.1]pentan-1-yl)-1-((5-(trifluoromethyl)-1H-pyrazol-3-yl)methyl)urea]
CC50 at 65 h [1]: > 100000 nM
viability at 65 h, 100 µM [1]: 76.8%
IC50 [2]: 220 nM

COc1ncc(N(Cc2cc(C#N)[nH]n2)C(=O)Nc2ccc(F)c(C(F)(F)F)c2)cn1 [Example 215, 1-((5-cyano-1H-pyrazol-3-yl)methyl)-3-(4-fluoro-3-(trifluoromethyl)phenyl)-1-(2-methoxypyrimidin-5-yl)urea]
CC50 at 65 h [1]: > 100000 nM
viability at 65 h, 100 µM [1]: 67%
IC50 [2]: 20 nM

COc1ncc(N(Cc2cc(C(F)(F)F)[nH]n2)C(=O)Nc2cc(F)c(F)c(F)c2)cn1 [Example 219, 1-(2-methoxypyrimidin-5-yl)-1-((5-(trifluoromethyl)-1H-pyrazol-3-yl)methyl)-3-(3,4,5-trifluorophenyl)urea]
CC50 at 65 h [1]: > 100000 nM
viability at 65 h, 100 µM [1]: 53.7%
IC50 [2]: 12 nM

COC12CC(N(Cc3cc(C(F)(F)F)[nH]n3)C(=O)Nc3cc(F)c(F)c(F)c3)(C1)C2 [Example 222, 1-(3-methoxybicyclo[1.1.1]pentan-1-yl)-1-((5-(trifluoromethyl)-1H-pyrazol-3-yl)methyl)-3-(3,4,5-trifluorophenyl)urea]
CC50 at 65 h [1]: 31700 nM
viability at 65 h, 100 µM [1]: 2.5%
IC50 [2]: 120 nM

COc1ncc(N(Cc2cc(C#N)[nH]n2)C(=O)Nc2cc(F)c(F)c(F)c2)cn1 [Example 223, 1-((5-cyano-1H-pyrazol-3-yl)methyl)-1-(2-methoxypyrimidin-5-yl)-3-(3,4,5-trifluorophenyl)urea]
CC50 at 65 h [1]: > 100000 nM
viability at 65 h, 100 µM [1]: 87.5%
IC50 [2]: 70 nM

COc1ncc(N(Cc2cc(C(F)(F)F)[nH]n2)C(=O)Nc2cc(F)c(F)c(F)n2)cn1 [Example 224, 1-(2-methoxypyrimidin-5-yl)-1-((5-(trifluoromethyl)-1H-pyrazol-3-yl)methyl)-3-(4,5,6-trifluoropyridin-2-yl)urea]
CC50 at 65 h [1]: > 100000 nM
viability at 65 h, 100 µM [1]: 100%
IC50 [2]: 210 nM
